Assay results as given in US20240246942A1, “KINASE INHIBITORS FOR THE TREATMENT OF NEURODEGENERATIVE DISEASES” (priority 2020, published 2024).

Legend:
Test in all cases: biochemical
[1] = biological target: T1, panel of 374 wild-type kinases (Homo sapiens, UniProt O00141); settings: read-out: % Enzyme Activity (relative to DMSO controls), kinase SGK1
T1 construct: purchased Reaction Biology Corporation
T1 sequence (O00141 1-431): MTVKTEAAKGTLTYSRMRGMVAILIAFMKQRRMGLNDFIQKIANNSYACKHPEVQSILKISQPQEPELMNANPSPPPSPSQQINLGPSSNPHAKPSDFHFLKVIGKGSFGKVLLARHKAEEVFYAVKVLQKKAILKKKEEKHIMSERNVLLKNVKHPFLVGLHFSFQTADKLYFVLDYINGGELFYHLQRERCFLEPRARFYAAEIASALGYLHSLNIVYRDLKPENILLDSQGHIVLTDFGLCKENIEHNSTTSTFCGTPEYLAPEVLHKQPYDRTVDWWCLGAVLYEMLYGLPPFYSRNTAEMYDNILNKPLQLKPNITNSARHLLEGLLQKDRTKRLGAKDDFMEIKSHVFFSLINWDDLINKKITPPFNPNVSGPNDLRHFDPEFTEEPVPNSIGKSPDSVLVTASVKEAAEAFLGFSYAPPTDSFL

[2] = biological target: T2, panel of 374 wild-type kinases (Homo sapiens, UniProt O43781); settings: read-out: % Enzyme Activity (relative to DMSO controls), DYRK3
T2 construct: purchased Reaction Biology Corporation
T2 sequence (O43781 1-588): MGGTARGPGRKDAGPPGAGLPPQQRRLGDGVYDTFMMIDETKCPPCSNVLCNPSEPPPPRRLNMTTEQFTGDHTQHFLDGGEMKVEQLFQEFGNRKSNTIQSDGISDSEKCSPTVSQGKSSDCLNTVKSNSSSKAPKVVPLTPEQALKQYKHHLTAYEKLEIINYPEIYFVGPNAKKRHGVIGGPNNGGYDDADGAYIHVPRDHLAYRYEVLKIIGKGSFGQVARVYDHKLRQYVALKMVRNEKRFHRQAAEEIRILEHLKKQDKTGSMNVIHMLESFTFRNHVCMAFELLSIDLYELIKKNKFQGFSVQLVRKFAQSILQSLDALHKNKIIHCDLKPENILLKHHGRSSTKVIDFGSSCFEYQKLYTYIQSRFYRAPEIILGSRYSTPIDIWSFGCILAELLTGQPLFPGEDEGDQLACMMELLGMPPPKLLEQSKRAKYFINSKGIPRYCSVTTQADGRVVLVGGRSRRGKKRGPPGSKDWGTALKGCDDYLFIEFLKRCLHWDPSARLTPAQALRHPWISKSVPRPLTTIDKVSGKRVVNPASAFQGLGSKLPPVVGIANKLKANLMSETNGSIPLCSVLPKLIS

[3] = biological target: T3, panel of 374 wild-type kinases (Homo sapiens, UniProt Q9BUB5); settings: read-out: % Enzyme Activity (relative to DMSO controls), MNK1
T3 construct: purchased Reaction Biology Corporation

[4] = biological target: T4, panel of 374 wild-type kinases (Homo sapiens, UniProt P31749); settings: read-out: % Enzyme Activity (relative to DMSO controls), AKT1
T4 construct: purchased Reaction Biology Corporation

[5] = biological target: T5, panel of 374 wild-type kinases (Homo sapiens, UniProt Q9H4A3); settings: read-out: % Enzyme Activity (relative to DMSO controls), kinase WNK1
T5 construct: purchased Reaction Biology Corporation

[6] = biological target: T6, panel of 374 wild-type kinases (Homo sapiens, UniProt Q16566); settings: read-out: % Enzyme Activity (relative to DMSO controls), CAMK4
T6 construct: purchased Reaction Biology Corporation

[7] = biological target: T7, panel of 374 wild-type kinases (Homo sapiens, UniProt O75582); settings: read-out: % Enzyme Activity (relative to DMSO controls), MSK1/RPS6KA5
T7 construct: purchased Reaction Biology Corporation

[8] = biological target: T8, panel of 374 wild-type kinases (Homo sapiens, UniProt P23458); settings: read-out: % Enzyme Activity (relative to DMSO controls), JAK1
T8 construct: purchased Reaction Biology Corporation

[9] = biological target: T9, panel of 374 wild-type kinases (Homo sapiens, UniProt O15264); settings: read-out: % Enzyme Activity (relative to DMSO controls), kinase P38d/MAPK13
T9 construct: purchased Reaction Biology Corporation
T9 sequence (O15264 1-365): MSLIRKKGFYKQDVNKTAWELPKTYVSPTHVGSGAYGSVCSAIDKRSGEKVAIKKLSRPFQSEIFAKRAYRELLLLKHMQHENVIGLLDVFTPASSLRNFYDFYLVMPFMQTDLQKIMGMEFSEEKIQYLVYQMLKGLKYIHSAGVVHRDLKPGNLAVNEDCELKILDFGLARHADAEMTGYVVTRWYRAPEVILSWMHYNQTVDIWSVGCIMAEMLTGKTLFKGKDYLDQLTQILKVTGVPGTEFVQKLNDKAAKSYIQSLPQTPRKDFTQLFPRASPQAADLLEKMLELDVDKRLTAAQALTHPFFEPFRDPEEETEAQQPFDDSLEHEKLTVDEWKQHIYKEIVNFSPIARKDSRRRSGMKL

[10] = biological target: T10, panel of 374 wild-type kinases (Homo sapiens, UniProt O14757); settings: read-out: % Enzyme Activity (relative to DMSO controls), CHK1
T10 construct: purchased Reaction Biology Corporation
T10 sequence (O14757 1-476): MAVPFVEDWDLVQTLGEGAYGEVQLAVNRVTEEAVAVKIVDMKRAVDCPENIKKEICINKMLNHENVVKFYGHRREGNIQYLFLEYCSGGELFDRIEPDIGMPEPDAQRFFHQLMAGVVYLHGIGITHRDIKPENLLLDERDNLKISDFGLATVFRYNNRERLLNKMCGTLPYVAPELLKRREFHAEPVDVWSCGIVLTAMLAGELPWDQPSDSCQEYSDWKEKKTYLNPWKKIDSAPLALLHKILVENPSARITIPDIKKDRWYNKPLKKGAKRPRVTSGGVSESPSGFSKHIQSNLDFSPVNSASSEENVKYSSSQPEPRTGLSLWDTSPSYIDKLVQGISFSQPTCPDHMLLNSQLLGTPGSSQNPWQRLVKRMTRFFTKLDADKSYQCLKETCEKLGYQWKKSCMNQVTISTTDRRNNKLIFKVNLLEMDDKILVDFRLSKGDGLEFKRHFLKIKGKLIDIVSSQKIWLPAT

[11] = biological target: T11, panel of 374 wild-type kinases (Homo sapiens, UniProt Q13153); settings: read-out: % Enzyme Activity (relative to DMSO controls), kinase PAK1
T11 construct: purchased Reaction Biology Corporation
T11 sequence (Q13153 whole entry): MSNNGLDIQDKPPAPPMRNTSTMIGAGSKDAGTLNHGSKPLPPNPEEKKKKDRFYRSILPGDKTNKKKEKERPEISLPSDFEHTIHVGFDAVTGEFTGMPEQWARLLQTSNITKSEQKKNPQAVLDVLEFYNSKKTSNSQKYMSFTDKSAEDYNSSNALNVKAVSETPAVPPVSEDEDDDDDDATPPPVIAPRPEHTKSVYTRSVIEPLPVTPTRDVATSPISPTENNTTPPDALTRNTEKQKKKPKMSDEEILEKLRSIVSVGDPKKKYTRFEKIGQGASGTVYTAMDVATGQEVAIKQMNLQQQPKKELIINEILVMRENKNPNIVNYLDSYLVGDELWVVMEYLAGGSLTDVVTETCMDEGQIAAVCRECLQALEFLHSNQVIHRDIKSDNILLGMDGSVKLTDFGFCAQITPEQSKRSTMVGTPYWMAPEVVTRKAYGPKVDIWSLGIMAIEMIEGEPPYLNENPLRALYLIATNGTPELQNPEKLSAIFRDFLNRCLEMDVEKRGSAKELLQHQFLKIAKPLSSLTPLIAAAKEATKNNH

T6 sequence (Q16566 whole entry): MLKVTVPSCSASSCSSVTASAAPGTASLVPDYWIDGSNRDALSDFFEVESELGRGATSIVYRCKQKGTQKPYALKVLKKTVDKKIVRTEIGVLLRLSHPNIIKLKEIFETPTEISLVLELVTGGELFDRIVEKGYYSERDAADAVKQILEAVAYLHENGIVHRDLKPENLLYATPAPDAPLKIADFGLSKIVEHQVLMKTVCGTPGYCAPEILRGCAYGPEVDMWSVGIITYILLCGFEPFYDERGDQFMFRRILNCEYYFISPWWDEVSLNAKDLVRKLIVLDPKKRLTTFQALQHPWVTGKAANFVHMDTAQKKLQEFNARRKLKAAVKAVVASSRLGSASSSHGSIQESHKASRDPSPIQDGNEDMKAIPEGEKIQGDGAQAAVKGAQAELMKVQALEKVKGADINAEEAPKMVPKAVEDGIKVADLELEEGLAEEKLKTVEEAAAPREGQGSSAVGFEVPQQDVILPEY
T3 sequence (Q9BUB5 whole entry): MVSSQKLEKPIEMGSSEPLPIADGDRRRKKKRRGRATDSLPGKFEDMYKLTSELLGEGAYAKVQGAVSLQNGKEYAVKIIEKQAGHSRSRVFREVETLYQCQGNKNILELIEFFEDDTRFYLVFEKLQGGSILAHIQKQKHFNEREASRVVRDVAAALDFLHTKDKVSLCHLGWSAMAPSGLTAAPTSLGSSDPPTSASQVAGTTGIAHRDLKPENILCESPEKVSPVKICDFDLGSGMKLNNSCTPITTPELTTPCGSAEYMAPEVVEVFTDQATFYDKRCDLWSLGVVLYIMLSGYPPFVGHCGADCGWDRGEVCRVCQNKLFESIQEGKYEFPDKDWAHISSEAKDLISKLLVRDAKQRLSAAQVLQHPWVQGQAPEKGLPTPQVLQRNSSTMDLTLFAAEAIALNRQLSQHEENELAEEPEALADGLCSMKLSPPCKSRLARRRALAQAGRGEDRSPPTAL
T7 sequence (O75582 whole entry): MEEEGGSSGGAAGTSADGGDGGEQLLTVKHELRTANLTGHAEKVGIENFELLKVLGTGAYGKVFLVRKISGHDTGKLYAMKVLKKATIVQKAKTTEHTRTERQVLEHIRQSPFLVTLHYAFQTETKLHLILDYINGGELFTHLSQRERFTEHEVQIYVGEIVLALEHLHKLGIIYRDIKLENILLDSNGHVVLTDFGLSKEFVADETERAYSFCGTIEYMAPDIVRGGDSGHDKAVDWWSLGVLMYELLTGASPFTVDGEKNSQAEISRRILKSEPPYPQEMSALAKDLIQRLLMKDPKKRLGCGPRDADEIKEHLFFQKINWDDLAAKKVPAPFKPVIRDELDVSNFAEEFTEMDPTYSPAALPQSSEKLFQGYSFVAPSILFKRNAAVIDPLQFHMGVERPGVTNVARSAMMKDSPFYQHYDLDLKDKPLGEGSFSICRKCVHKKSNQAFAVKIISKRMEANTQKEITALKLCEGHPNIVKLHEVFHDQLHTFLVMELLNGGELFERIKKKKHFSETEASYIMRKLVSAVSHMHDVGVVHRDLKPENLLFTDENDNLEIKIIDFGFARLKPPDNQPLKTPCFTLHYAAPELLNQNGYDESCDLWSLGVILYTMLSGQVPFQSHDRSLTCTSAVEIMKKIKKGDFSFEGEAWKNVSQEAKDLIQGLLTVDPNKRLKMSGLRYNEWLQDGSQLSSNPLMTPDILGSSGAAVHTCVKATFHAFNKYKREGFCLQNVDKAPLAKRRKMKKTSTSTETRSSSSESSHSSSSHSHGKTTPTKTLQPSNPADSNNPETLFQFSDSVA
T4 sequence (P31749 whole entry): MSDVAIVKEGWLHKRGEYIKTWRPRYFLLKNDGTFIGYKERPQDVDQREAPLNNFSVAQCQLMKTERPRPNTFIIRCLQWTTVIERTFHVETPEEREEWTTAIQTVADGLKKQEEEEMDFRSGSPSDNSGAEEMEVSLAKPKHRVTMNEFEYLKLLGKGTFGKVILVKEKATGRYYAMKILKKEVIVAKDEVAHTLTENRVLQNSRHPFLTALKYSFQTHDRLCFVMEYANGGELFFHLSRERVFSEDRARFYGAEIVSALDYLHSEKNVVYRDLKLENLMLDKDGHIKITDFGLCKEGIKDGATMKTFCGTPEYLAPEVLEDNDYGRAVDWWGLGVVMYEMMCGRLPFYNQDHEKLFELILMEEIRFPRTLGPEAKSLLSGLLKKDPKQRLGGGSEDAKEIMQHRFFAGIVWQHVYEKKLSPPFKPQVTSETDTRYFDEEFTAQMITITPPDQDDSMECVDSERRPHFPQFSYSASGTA
T8 sequence (P23458 whole entry): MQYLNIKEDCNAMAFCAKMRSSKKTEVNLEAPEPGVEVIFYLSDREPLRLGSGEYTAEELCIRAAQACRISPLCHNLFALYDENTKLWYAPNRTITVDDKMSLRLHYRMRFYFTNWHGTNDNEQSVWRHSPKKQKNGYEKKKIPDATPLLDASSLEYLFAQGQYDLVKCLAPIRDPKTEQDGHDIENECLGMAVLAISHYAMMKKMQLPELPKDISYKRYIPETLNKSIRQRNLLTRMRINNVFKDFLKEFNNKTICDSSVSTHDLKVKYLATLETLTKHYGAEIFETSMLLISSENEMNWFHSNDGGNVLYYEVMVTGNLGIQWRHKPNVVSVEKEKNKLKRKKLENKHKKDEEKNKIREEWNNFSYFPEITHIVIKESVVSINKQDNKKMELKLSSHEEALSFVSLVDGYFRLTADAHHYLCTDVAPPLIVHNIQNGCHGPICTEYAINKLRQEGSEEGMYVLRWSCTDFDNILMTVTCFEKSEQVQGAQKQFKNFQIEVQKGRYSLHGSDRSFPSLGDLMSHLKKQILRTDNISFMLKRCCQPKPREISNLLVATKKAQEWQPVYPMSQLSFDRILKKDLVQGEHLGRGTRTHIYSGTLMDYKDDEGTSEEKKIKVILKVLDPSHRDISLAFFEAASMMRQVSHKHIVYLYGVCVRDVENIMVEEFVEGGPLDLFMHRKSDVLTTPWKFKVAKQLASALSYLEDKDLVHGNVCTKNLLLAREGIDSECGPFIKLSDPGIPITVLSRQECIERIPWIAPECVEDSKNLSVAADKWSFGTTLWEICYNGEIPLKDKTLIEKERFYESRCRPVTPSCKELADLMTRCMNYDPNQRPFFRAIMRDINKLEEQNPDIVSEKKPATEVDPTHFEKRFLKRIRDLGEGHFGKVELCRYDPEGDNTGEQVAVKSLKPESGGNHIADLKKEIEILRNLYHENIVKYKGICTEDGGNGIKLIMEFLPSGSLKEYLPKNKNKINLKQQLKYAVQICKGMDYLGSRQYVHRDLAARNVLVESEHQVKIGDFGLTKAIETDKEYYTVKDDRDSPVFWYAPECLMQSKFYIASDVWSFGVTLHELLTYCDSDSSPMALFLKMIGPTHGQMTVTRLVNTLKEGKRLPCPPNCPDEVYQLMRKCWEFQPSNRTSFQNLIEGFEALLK

Compound | remaining activity at 5 µM [1] | remaining activity at 5 µM [2] | remaining activity at 5 µM [3] | remaining activity at 5 µM [4] | remaining activity at 5 µM [5] | remaining activity at 5 µM [6] | remaining activity at 5 µM [7] | remaining activity at 5 µM [8] | remaining activity at 5 µM [9] | remaining activity at 5 µM [10] | remaining activity at 5 µM [11] | other results
O=C(Nc1cnn(-c2csc(C(=O)NC3COC3)c2)c1)Nc1ccccc1Cl [Compound 17, 4-(4-(3-(2-chlorophenyl)ureido)-1H-pyrazol-1-yl)-N-(oxetan-3-yl)thiophene-2-carboxamide] | 93.7% | 93.3% | 94.3% | 95.4% | 99.7% | 114% | 89.5% | 98.7% | 122% | 98.7% | 106% | –
Cc1sc(C(=O)NC2COC2)cc1-n1cc(NC(=O)Nc2c(F)cccc2Cl)cn1 [Compound 27, 4-(4-(3-(2-chloro-6-fluorophenyl)ureido)-1H-pyrazol-1-yl)-5-methyl-N-(oxetan-3-yl)thiophene-2-carboxamide] | – | – | – | – | – | – | – | – | – | – | – | remaining activity at 10 µM ([1]; 10 uM): 115%; remaining activity at 10 µM ([2]; 10 uM): 101%; remaining activity at 10 µM ([3]; 10 uM): 94.2%; remaining activity at 10 µM ([4]; 10 uM): 105%; remaining activity at 10 µM ([5]; 10 uM): 88.9%; remaining activity at 10 µM ([6]; 10 uM): 98.5%; remaining activity at 10 µM ([7]; 10 uM): 111%; remaining activity at 10 µM ([8]; 10 uM): 72.2%; remaining activity at 10 µM ([9]; 10 uM): 89.2%; remaining activity at 10 µM ([10]; 10 uM): 118%; remaining activity at 10 µM ([11]; 10 uM): 104%
O=C(Nc1cnn(-c2csc(C(=O)NC3COC3)c2)c1)Nc1c(F)cccc1Cl [Compound 25, 4-(4-(3-(2-chloro-6-fluorophenyl)ureido)-1H-pyrazol-1-yl)-N-(oxetan-3-yl)thiophene-2-carboxamide] | 95.4% | 99.2% | 103% | 105% | 93.3% | 98.7% | 104% | 107% | 98.4% | 141% | 81.2% | –
